Data published in US20240067651A1 (Biohaven Therapeutics Ltd., priority 2019, published 2024).

Tests used:
Plasma Stability = assay type: in vitro ADME, human
In short: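 Parent compound quantified by LC-MS/MS after acetonitrile precipitation, reported as percent of control remaining (triplicate). Incubation: 1 hour, 37° C, fresh human plasma, compound at 1 μM.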

[1] = Stability in Simulated Gastric Fluid (SGF); assay type: in vitro ADME; design: key: % parent compound remaining relative to 0-minute sample
In short: (§1)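 Each compound is spiked to a final 2 μg/mL into SGF with pepsin (pH 1.2) and into SIF with pancreatin (pH 6.8). Samples shake at 37° C, aliquots are taken between 0 and 60 minutes, precipitated with acetonitrile and analysed by LC-MS/MS. Degradation half-life is derived from the natural-log plot where time points allow.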

[2] = Caco-2 Permeability Assay; assay type: in vitro ADME, human; settings: human
Text: The compounds of the invention may be tested for biological activity as MPO inhibitors by methods known to those skilled in the art. In addition, methods such as, for example, a Caco-2 assay, may be used to test the bioavailability of the compounds of the invention. A description of a Caco-2 permeability assay is as follows:
• The Caco-2 monolayer is widely used across the pharmaceutical industry as an in vitro model of the human small intestinal mucosa to predict the absorption of orally administered drugs.^1-4 • The Caco-2 cell model mimics processes such as transcellular transport, paracellular transport, and some aspects of efflux and active transport. • Readout: Papp (A→B), Papp (B→A), Efflux ratio, % Recovery • Controls: with and without Pgp inhibitor; Atenolol, Propanolol, Taxel-1
The Caco-2 cells are cultured to confluency, trypsinized and seeded onto a filter transwell insert at a density of ^˜32,000 cells/well in DMEM cell culture medium. Cells are grown in a humidified atmosphere of 5% CO2 at 37° C. Following an overnight attachment period (24 h after seeding), the cell medium is replaced with fresh medium in both the apical and basolateral compartments every other day. The cell monolayers are used for transport studies 21 days post seeding after measuring the TEER values ([…]). The apical sides and basolateral sides are washed consecutively with HBSS 2.5% (v/v), HEPES (pH 7.4) or HBSS 2.5% (v/v), HEPES 10% (v/v), and Fetal Bovine Serum (pH 7.4) at 37° C. in an incubator under an atmosphere of 5% CO2.
Donor working solution is prepared by dilution of DMSO stock of test article or positive control with transport media to 10 μM.
For A→B directional transport, the donor working solution (with test article or positive control, with or without Pgp inhibitor) is added to the apical (A) compartment and the transport media as receiver working solution is added to the basolateral (B) compartment. For B→A directional transport, the donor working solution (with positive control or test article, with or without Pgp inhibitor) is added to the basolateral (B) compartment and transport media as receiver working solution is added to the apical (A) compartment.
The cells are incubated in a humidified atmosphere of 5% CO2 at 37° C. for 90 minutes.
At the end of the incubation, samples are taken from both donor and receiver compartments and transferred into 96-well assay plates containing internal standard solution (IS) in each well. After centrifugation, the supernatant solutions are transferred to clean 96 well plates and analyzed by LC-MS/MS. The MS detection is performed using a Sciex API 4000 instrument. Each compound is analyzed by reversed phase HPLC.
The parameters Papp (apparent permeability) and efflux ratio are calculated as follows:
Papp=(dQ/dt)×(1/C0)×(1/A)
Efflux ratio=Papp[B→A]/Papp[A→B]
where dQ/dt is the permeability rate, C0 is the initial concentration in the donor compartment, and A is the surface area of the cell monolayer (0.33 cm^2). The Papp value is a rate measured in cm/s. Calculated Papp is ranked as low (<[…]), moderate (1-10×10^−6 cm/s), and high (>[…]).
Comparing the efflux ratios generated in the presence and absence of a Pgp inhibitor identifies whether the test article is a Pgp substrate.
Recovery is calculated as follows:
% Recovery=(Total compound mass in donor and receiver compartments at the end of the incubation/Initial compound mass in the donor compartment)×100.

[3] = Stability in Simulated Intestinal Fluid (SIF); assay type: in vitro ADME; design: key: % parent compound remaining relative to 0-minute sample
In short: as §1

[4] = Caco-2, pH 7.4, Caco-2 monolayer
[5] = % remaining at 1 h, human plasma, 1 μM, 37° C.
[6] = % remaining at 1 h, SGF with pepsin pH 1.2, 2 μg/mL, 37° C.
[7] = Caco-2, pH 7.4, donor 10 μM, 90 minutes, 37° C., direction not given
[8] = % remaining at 1 h, SIF with pancreatin pH 6.8, 2 μg/mL, 37° C.
[9] = % remaining at 1 h in human plasma
[10] = % remaining at 1 h in simulated gastric fluid
[11] = % remaining at 1 h in simulated intestinal fluid

SMILES: CC(C)OCCn1c(=S)[nH]c(=O)c2c1ccn2COC(=O)[C@H](NC(=O)OC(C)(C)C)C(C)C [Example 298, {4-oxo-1-[2-(propan-2-yloxy)ethyl]-2-sulfanylidene-1H,2H,3H,4H,5H-pyrrolo[3,2-d]pyrimidin-5-yl}methyl (2R)-2-{[(tert-butoxy)carbonyl]amino}-3-methylbutanoate]
- human Plasma stability (Plasma Stability; % remaining @ 1 h): 99% @ 1 h
- SGF ([1]; % remaining @ 1 h): 99% @ 1 h
- Papp at 90 min, 10 µM ([2]; Caco-2, pH 7.4): 33.5 ×10⁻⁶ cm/s
- SIF ([3]; % remaining @ 1 h): 59% @ 1 h

SMILES: Cc1cccc(OC(=O)OCn2ccc3c2c(=O)[nH]c(=S)n3CCOC(C)C)c1 [Example 237]
- human Plasma stability (Plasma Stability; human plasma, at 1 h): 1% remaining
- SGF ([1]; simulated gastric fluid, at 1 h): 74% remaining
- Papp at 90 min, 10 µM [2, 4]: 0.723 ×10⁻⁶ cm/s
- SIF ([3]; simulated intestinal fluid, at 1 h): 2% remaining

SMILES: CC(C)OCCn1c(=S)[nH]c(=O)c2c1ccn2COC(=O)[C@@H](C)N.O=C(O)C(F)(F)F [Example 292, trifluoroacetic acid {4-oxo-1-[2-(propan-2-yloxy)ethyl]-2-sulfanylidene-1H,2H,3H,4H,5H-pyrrolo[3,2-d]pyrimidin-5-yl}methyl (2R)-2-aminopropanoate]
- human Plasma stability (Plasma Stability; % remaining @ 1 h): 20% @ 1 h
- SGF ([1]; % remaining @ 1 h): 99% @ 1 h
- Papp at 90 min, 10 µM ([2]; Caco-2, pH 7.4): < 1.06 ×10⁻⁶ cm/s
- SIF ([3]; % remaining @ 1 h): 7% @ 1 h

SMILES: CC(C)OCCn1c(=S)[nH]c(=O)c2c1ccn2COC(N)=O [Example 181, Carbamic acid 1-(2-isopropoxy-ethyl)-4-oxo-2-thioxo-1,2,3,4-tetrahydro-pyrrolo[3,2-d]pyrimidin-5-ylmethyl ester]
- human Plasma stability (Plasma Stability; [5]): 99%
- SGF [1, 6]: 82%
- Papp at 90 min, 10 µM [2, 7]: 21.8 ×10⁻⁶ cm/s
- SIF [3, 8]: 97%

SMILES: COC(=O)[C@H](CCCCNC(=O)OC(C)(C)C)NC(=O)n1ccc2c1c(=O)[nH]c(=S)n2CCOC(C)C [Example 103, Methyl (2S)-6-{[(tert-butoxy)carbonyl]amino}-2-({4-oxo-1-[2-(propan-2-yloxy)ethyl]-2-sulfanylidene-1H,2H,3H,4H,5H-pyrrolo[3,2-cl]pyrimidine-5-carbonyl}amino)hexanoate]
- human Plasma stability (Plasma Stability; [5]): 92%
- SGF [1, 6]: 96%
- Papp at 90 min, 10 µM [2, 7]: 13.5 ×10⁻⁶ cm/s
- SIF [3, 8]: 96%

SMILES: CSCC[C@@H](NC(=O)OC(C)(C)C)C(=O)NCCOCCOC(=O)OCn1ccc2c1c(=O)[nH]c(=S)n2CCOC(C)C [Example 389, (2R)-2-{[(tert-butoxy)carbonyl]amino}-4-(methylsulfanyl)-N-[2-(2-{[{{4-oxo-1-[2-(propan-2-yloxy)ethyl]-2-sulfanylidene-1H,2H,3H,4H,5H-pyrrolo[3,2-d]pyrimidin-5-yl}methoxy)carbonyl]oxy}ethoxy)eth-yl]butanamide]
- human Plasma stability (Plasma Stability; human plasma, remaining at 1 h): 1% remaining
- SGF ([1]; simulated gastric fluid, remaining at 1 h): 98% remaining
- Papp at 90 min, 10 µM [2, 4]: 5.94 ×10⁻⁶ cm/s
- SIF ([3]; simulated intestinal fluid, remaining at 1 h): 60% remaining

SMILES: CC(C)OCCn1c(=S)n2c(=O)c3c1ccn3COC(=O)C(C)(C)CCCCC(C)(C)C(=O)OC2 [Example 118, 5,5,10,10-Tetramethyl-16-[2-(propan-2-yloxy)ethyl]-15-sulfanylidene-3,12-dioxa-1,14,16-triazatricyclo[12.5.2.0^{17,20}]henicosa-17(20),18-diene-4,11,21-trione]
- human Plasma stability (Plasma Stability; [5]): 73%
- SGF [1, 6]: 94%
- Papp at 90 min, 10 µM [2, 7]: 6.6 ×10⁻⁶ cm/s
- SIF [3, 8]: 76%

SMILES: CC(C)OCCn1c(=S)[nH]c(=O)c2c1ccn2COC(=O)CCC(=O)OC(C)(C)C [Example 126]
- human Plasma stability (Plasma Stability; [9]): 2% remaining
- SGF [1, 10]: 100%
- Papp at 90 min, 10 µM [2, 4]: 13.5 ×10⁻⁶ cm/s
- SIF [3, 11]: 67% remaining

SMILES: CC(C)OCCn1c(=S)[nH]c(=O)c2c1ccn2COC(=O)CCCCOC(=O)[C@@H](NC(=O)OC(C)(C)C)C(C)C [Example 333, {4-oxo-1-[2-(propan-2-yloxy)ethyl]-2-sulfanylidene-1H,2H,3H,4H,5H-pyrrolo[3,2-d]pyrimidin-5-yl}methyl 5-{[(2S)-2-{[(tert-butoxy)carbonyl]amino}-3-methylbutanoyl]oxy}pentanoate]
- human Plasma stability (Plasma Stability; % remaining @ 1 h): 5% @ 1 h
- SGF ([1]; % remaining @ 1 h): 98% @ 1 h
- Papp at 90 min, 10 µM ([2]; Caco-2, pH 7.4): < 0.072 ×10⁻⁶ cm/s
- SIF ([3]; % remaining @ 1 h): 4% @ 1 h

SMILES: CC(C)C[C@@H](N)C(=O)OCn1c(=O)c2c(ccn2COC(=O)[C@H](N)CC(C)C)n(CCOC(C)C)c1=S.O=C(O)C(F)(F)F.O=C(O)C(F)(F)F [Example 326, bis(trifluoroacetic acid) [3-({[(2R)-2-amino-4-methylpentanoyl]oxy}methyl)-4-oxo-1-[2-(propan-2-yloxy)ethyl]-2-sulfanylidene-1H,2H,3H,4H,5H-pyrrolo [3,2-d]pyrimidin-5-yl]methyl (2R)-2-amino-4-methylpentanoate]
- human Plasma stability (Plasma Stability; % remaining @ 1 h): 17%@ 1 h
- SGF ([1]; % remaining @ 1 h): 97%@ 1 h
- Papp at 90 min, 10 µM ([2]; Caco-2, pH 7.4): < 0.338 ×10⁻⁶ cm/s
- SIF ([3]; % remaining @ 1 h): 9%@ 1 h

SMILES: CC(C)C[C@@H](N)C(=O)OCn1ccc2c1c(=O)n(CO)c(=S)n2CCOC(C)C.O=C(O)C(F)(F)F [Example 327, trifluoroacetic acid [3-(hydroxymethyl)-4-oxo-1-[2-(propan-2-yloxy)ethyl]-2-sulfanylidene-1H,2H,3H,4H,5H-pyrrolo[3,2-d]pyrimidin-5-yl]methyl (2R)-2-amino-4-methylpentanoate]
- human Plasma stability (Plasma Stability; % remaining @ 1 h): 21%@ 1 h
- SGF ([1]; % remaining @ 1 h): 100%@ 1 h
- Papp at 90 min, 10 µM ([2]; Caco-2, pH 7.4): < 1.03 ×10⁻⁶ cm/s
- SIF ([3]; % remaining @ 1 h): 49%@ 1 h

SMILES: CC(C)OCCn1c(=S)[nH]c(=O)c2c1ccn2COC(=O)CCCCNC(=O)[C@@H](N)CO.O=C(O)C(F)(F)F [Example 43]
- human Plasma stability (Plasma Stability; [9]): 16% remaining
- SGF [1, 10]: 92% remaining
- Papp at 90 min, 10 µM [2, 4]: 0.147 ×10⁻⁶ cm/s
- SIF [3, 11]: 87% remaining

SMILES: CC(C)OCCn1c(=S)[nH]c(=O)c2c1ccn2COC(=O)[C@@H](N)C(C)C.O=C(O)C(F)(F)F [Example 296, trifluoroacetic acid {4-oxo-1-[2-(propan-2-yloxy)ethyl]-2-sulfanylidene-1H,2H,3H,4H,5H-pyrrolo[3,2-d]pyrimidin-5-yl}methyl (2S)-2-amino-3-methylbutanoate]
- human Plasma stability (Plasma Stability; % remaining @ 1 h): 12% @ 1 h
- SGF ([1]; % remaining @ 1 h): 97% @ 1 h
- Papp at 90 min, 10 µM ([2]; Caco-2, pH 7.4): 1.18 ×10⁻⁶ cm/s
- SIF ([3]; % remaining @ 1 h): 43% @ 1 h

SMILES: CC(C)OCCn1c(SCOC(=O)[C@@H](Cc2ccccc2)NC(=O)OC(C)(C)C)nc(=O)c2c1ccn2COC(=O)[C@@H](Cc1ccccc1)NC(=O)OC(C)(C)C [Example 306, {[5-({[(2R)-2-{[(tert-butoxy)carbonyl]amino}-3-phenylpropanoyl]oxy}methyl)-4-oxo-1-[2-(propan-2-yloxy)ethyl]-1H,4H,5H-pyrrolo[3,2-d]pyrimidin-2-yl]sulfanyl}methyl (2R)-2-{[(tert-butoxy)carbonyl]amino}-3-phenylpropanoate]
- human Plasma stability (Plasma Stability; % remaining @ 1 h): 72% @ 1 h
- SGF ([1]; % remaining @ 1 h): 41% @ 1 h
- Papp at 90 min, 10 µM ([2]; Caco-2, pH 7.4): 3.8 ×10⁻⁶ cm/s
- SIF ([3]; % remaining @ 1 h): 1% @ 1 h

SMILES: CCCCCCCOC(=O)OCn1ccc2c1c(=O)nc(S)n2CCOC(C)C [Example 219]
- human Plasma stability (Plasma Stability; % remaining at 1 h in human plasma, the 17th table): 21% remaining
- SGF ([1]; % remaining at 1 h in simulated gastric fluid, the 17th table): 98% remaining
- Papp at 90 min, 10 µM ([2]; Caco-2, pH 7.4, Caco-2 monolayer, the 17th table): 0.847 ×10⁻⁶ cm/s
- SIF ([3]; % remaining at 1 h in simulated intestinal fluid, the 17th table): 23% remaining
